# Experiments:
# [1] = test system: Aspergillus brasiliensis; experiment: Antimicrobial efficacy, MIC by agar dilution; assay type: cell-based; conditions: Sabouraud 4% dextrose agar pH 5.6
# Description: (§1) Below, the antimicrobial efficacy of a composition according to the invention consisting of 50% by weight of isorbide caprylate 1 and 50% by weight of a 10% by weight strength solution of the monoethanolamine salt of 4-methyl-6-(2,4,4-trimethylpentyl)-1-hydroxy-2-pyridone (Octopirox®, 100% by weight strength, Clariant) in butyl polyglycol against bacteria, fungi and yeasts is examined (hereinbelow, the composition is referred to as “composition A”). For the tests with bacteria, composition A was diluted with butyl polyglycol and then, at 50° C., added to liquid CASO agar (casein-peptone agar) buffered to pH 7 (+/−0.2) in various concentrations (hereinbelow referred to as compositions B1, B2, etc.). For the tests with fungi and yeasts, composition A was diluted with butyl polyglycol and then added to liquid Sabouraud 4% dextrose agar buffered to pH 5.6 (+/−0.2) in various concentrations (hereinbelow referred to as compositions PH1, PH2, etc.). The compositions B1, B2, etc. and PH1, PH2 etc. were each poured into Petri dishes and each inoculated with identical amounts of bacteria, fungi and yeasts. The minimum inhibitory concentration (MIC) is the concentration at which inhibition of the growth of the bacteria, fungi and yeasts in the compositions B1, B2, etc. and PH1, PH2, etc. occurs.
# (§2) The minimum inhibitory concentrations for the pure substances isosorbide caprylate 1 and Octopirox® were determined analogously.
# (§3) The values determined for the minimum inhibitory concentrations “MIC mixture”, stated in Table 1 below, are based on the concentrations of composition A.
# (§4) The values determined for the minimum inhibitory concentrations “QA” and “QB”, stated in Table 1 below, have already been corrected for the dilution effect of the butyl polyglycol.
# (§5) Kull et al., Applied Microbiology 1961, 9, 538 using the formula below: SE=Qa/QA+Qb/QB where • Qa is the minimum inhibitory concentration of isosorbide caprylate 1 in the mixture employed, • QA is the minimum inhibitory concentration of isosorbide caprylate 1, • Qb is the minimum inhibitory concentration of Octopirox® in the mixture employed and • QB is the minimum inhibitory concentration of Octopirox®.
# (§6) The values for Qa and Qb are determined from the values for the mixtures (“MIC mixture”) by multiplying the minimum inhibitory concentrations determined for Qa with the factor 0.5 and for Qb with the factor 0.05, because of the proportions of the ingredients—50% by weight of isosorbide caprylate 1 and 50% by weight of a 10% by weight strength solution of Octopirox® in butyl polyglycol—in composition A according to the invention examined.
# (§7) If an SE value>1 is obtained, an antagonistic effect is present.
# (§8) Analogously to the determination of the antimicrobial activity according to the above example B), the antimicrobial activity of a mixture comprising, firstly, 89.6% by weight of isosorbide dicaprylate and 9.4% by weight of isosorbide monocaprylate (remainder: 1% by weight) (hereinbelow referred to as “isosorbide dicaprylate”) and, secondly, pure isosorbide was determined in further test series.
# [2] = test system: Aspergillus terreus; experiment: Antimicrobial efficacy, MIC by agar dilution; assay type: cell-based; conditions: Sabouraud 4% dextrose agar pH 5.6
# Description: as §1, §2, §3, §4, §5, §6, §7, §8
# [3] = test system: Candida albicans; experiment: Antimicrobial efficacy, MIC by agar dilution; assay type: cell-based; conditions: Sabouraud 4% dextrose agar pH 5.6
# Description: as §1, §2, §3, §4, §5, §6, §7, §8
# [4] = test system: Citrobacter freundii; experiment: Antimicrobial efficacy, MIC by agar dilution; assay type: cell-based; conditions: CASO agar pH 7
# Description: as §1, §2, §3, §4, §5, §6, §7, §8
# [5] = test system: Enterobacter aerogenes; experiment: Antimicrobial efficacy, MIC by agar dilution; assay type: cell-based; conditions: CASO agar pH 7
# Description: as §1, §2, §3, §4, §5, §6, §7, §8
# [6] = test system: Escherichia coli; experiment: Antimicrobial efficacy, MIC by agar dilution; assay type: cell-based; conditions: CASO agar pH 7
# Description: as §1, §2, §3, §4, §5, §6, §7, §8
# [7] = test system: Fusarium solani; experiment: Antimicrobial efficacy, MIC by agar dilution; assay type: cell-based; conditions: Sabouraud 4% dextrose agar pH 5.6
# Description: as §1, §2, §3, §4, §5, §6, §7, §8
# [8] = test system: Klebsiella pneumoniae; experiment: Antimicrobial efficacy, MIC by agar dilution; assay type: cell-based; conditions: CASO agar pH 7
# Description: as §1, §2, §3, §4, §5, §6, §7, §8
# [9] = test system: Penicillium funicolosium; experiment: Antimicrobial efficacy, MIC by agar dilution; assay type: cell-based; conditions: Sabouraud 4% dextrose agar pH 5.6
# Description: as §1, §2, §3, §4, §5, §6, §7, §8
# [10] = test system: Penicillium minioluteum; experiment: Antimicrobial efficacy, MIC by agar dilution; assay type: cell-based; conditions: Sabouraud 4% dextrose agar pH 5.6
# Description: as §1, §2, §3, §4, §5, §6, §7, §8
# [11] = test system: Proteus vulgaris; experiment: Antimicrobial efficacy, MIC by agar dilution; assay type: cell-based; conditions: CASO agar pH 7
# Description: as §1, §2, §3, §4, §5, §6, §7, §8
# [12] = test system: Pseudomonas aeruginosa; experiment: Antimicrobial efficacy, MIC by agar dilution; assay type: cell-based; conditions: CASO agar pH 7
# Description: as §1, §2, §3, §4, §5, §6, §7, §8
# [13] = test system: Pseudomonas oleovorans; experiment: Antimicrobial efficacy, MIC by agar dilution; assay type: cell-based; conditions: CASO agar pH 7
# Description: as §1, §2, §3, §4, §5, §6, §7, §8
# [14] = test system: Staphylococcus aureus; experiment: Antimicrobial efficacy, MIC by agar dilution; assay type: cell-based; conditions: CASO agar pH 7
# Description: as §1, §2, §3, §4, §5, §6, §7, §8
# [15] = test system: bacteria, fungi and yeasts; conditions: general statement, no test described, cited from earlier work
# [16] = test system: bacteria, fungi and yeasts; experiment: Antimicrobial activity overall; assay type: cell-based
# Description: Below, the antimicrobial efficacy of a composition according to the invention consisting of 50% by weight of isorbide caprylate 1 and 50% by weight of a 10% by weight strength solution of the monoethanolamine salt of 4-methyl-6-(2,4,4-trimethylpentyl)-1-hydroxy-2-pyridone (Octopirox®, 100% by weight strength, Clariant) in butyl polyglycol against bacteria, fungi and yeasts is examined (hereinbelow, the composition is referred to as “composition A”). For the tests with bacteria, composition A was diluted with butyl polyglycol and then, at 50° C., added to liquid CASO agar (casein-peptone agar) buffered to pH 7 (+/−0.2) in various concentrations (hereinbelow referred to as compositions B1, B2, etc.). […]
# The minimum inhibitory concentrations for the pure substances isosorbide caprylate 1 and Octopirox® were determined analogously. […]
# as §8
# [17] = MIC of Octopirox alone, corrected for butyl polyglycol dilution
# [18] = MIC of Octopirox in the mixture (MIC mixture x 0.05)
compound,measurement,setting,value
"Cc1cc(CC(C)CC(C)(C)C)n(O)c(=O)c1.NCCO (centres unmarked) [Octopirox®, monoethanolamine salt of 4-methyl-6-(2,4,4-trimethylpentyl)-1-hydroxy-2-pyridone]","OB, meas.",[1]; [17],20 ppm
same,"Ob, calc.",[1]; [18],10 ppm
same,"OB, meas.",[2]; [17],20 ppm
same,"Ob, calc.",[2]; [18],10 ppm
same,"OB, meas.",[3]; [17],20 ppm
same,"Ob, calc.",[3]; [18],10 ppm
same,"OB, meas.",[4]; [17],50 ppm
same,"Ob, calc.",[4]; [18],25 ppm
same,"OB, meas.",[5]; [17],100 ppm
same,"Ob, calc.",[5]; [18],25 ppm
same,"OB, meas.",[6]; [17],25 ppm
same,"Ob, calc.",[6]; [18],25 ppm
same,"OB, meas.",[7]; [17],20 ppm
same,"Ob, calc.",[7]; [18],10 ppm
same,"OB, meas.",[8]; [17],50 ppm
same,"Ob, calc.",[8]; [18],25 ppm
same,"OB, meas.",[9]; [17],20 ppm
same,"Ob, calc.",[9]; [18],10 ppm
same,"OB, meas.",[10]; [17],20 ppm
same,"Ob, calc.",[10]; [18],10 ppm
same,"OB, meas.",[11]; [17],25 ppm
same,"Ob, calc.",[11]; [18],12.5 ppm
same,"OB, meas.",[12]; [17],25 ppm
same,"Ob, calc.",[12]; [18],25 ppm
same,"OB, meas.",[13]; [17],50 ppm
same,"Ob, calc.",[13]; [18],25 ppm
same,"OB, meas.",[14]; [17],25 ppm
same,"Ob, calc.",[14]; [18],25 ppm
CCCCCCCC(=O)O [caprylic acid],antimicrobial efficacy,[15],antimicrobially effective
same,antimicrobial activity at a pH of 6 or above,[15]; pH of 6 or above,no antimicrobial activity
O[C@@H]1CO[C@H]2[C@@H]1OC[C@@H]2O [isosorbide],antimicrobial activity (summary of Table 2),"[16]; all bacteria, fungi and yeasts of Table 2",neither isosorbide nor isosorbide dicaprylate are antimicrobially active
isosorbide monocaprylate,antimicrobial activity (concluded),[16]; concluded from QA of isosorbide caprylate 1 and inactivity of its other constituents,significant antimicrobial activity

# Reference: US9295626B2, “Compositions comprising isosorbide monoester and N-hydroxypyridones” (Clariant International Ltd., priority 2011, dated 2016)
